Like-named read-outs stand apart in the source and are kept apart here.
Key:
[1] = DPPH free radical scavenging activity; settings: for EC50: isolated compounds (Table 5), read-out: SC50 DPPH
Method: DPPH analysis was performed according to the previously published procedure. A 400 μM DPPH radical solution was prepared in EtOH. The tested samples were dissolved in DMSO to prepare stock solutions, which were then diluted to the desired concentrations with EtOH. In a 96-well plate, 100 μL of each diluted tested sample solution was mixed with 100 μL of the DPPH radical solution (200 μM). The mixture was allowed to react in the dark at room temperature for 30 min. After the reaction, the absorbance at 520 nm was measured using an ELISA reader. DPPH radical scavenging activity was calculated by the following equation:(1) Scavenging rate (%)=(OD0−OD1)/OD0 where OD0 is absorbance of the control and OD 1 is that of the tested sample.

[2] = Ferric reducing antioxidant power (FRAP)
Method: The analysis was performed using the published method. The working solution was prepared by mixing acetate buffer (pH 3.6), ferric chloride solution (20 mM), and TPTZ solution (10 mM TPTZ in 40 mM HCl) in a 10:1:1 ratio. Then, 900 µL of this solution was warmed to 37 °C and mixed with 100 µL of the diluted sample, blank, or standard in a microcentrifuge tube. The tubes were vortexed and incubated in a dry bath at 37 °C for 40 min. Absorbance was measured at 593 nm. The standard curve was linear from 0 to 100 mM Trolox, and results were expressed as mM TE/g dry weight.

[3] = ABTS radical scavenging activity; settings: for EC50: isolated compounds (Table 5), read-out: SC50 ABTS
Method: The analysis of ABTS was performed according to the previously published method. The ABTS solution (28 mM) was mixed with […] solution (9.6 mM) in a 1:1 ratio (v/v) and allowed to react in the dark at room temperature for 16 h to generate the ABTS radical solution. The ABTS radical solution was then diluted with EtOH until the absorbance at 740 nm reached 0.70 ± 0.02. The tested samples were dissolved in DMSO to prepare stock solutions, which were subsequently diluted to the desired concentrations with EtOH. In a 96-well plate, 190 μL of the diluted ABTS radical solution was mixed with 10 μL of each diluted sample solution. The mixture was allowed to react in the dark at room temperature for 6 min. The absorbance at 740 nm was then measured using an ELISA reader. The ABTS radical scavenging activity was calculated by the following equation:(2) Scavenging rate (%)=(OD0−OD1)/OD0×100 where OD0 is absorbance of the control and OD1 is that of the tested sample.

[4] = molecular target: T1, AChE (Electrophorus electricus, UniProt O42275); assay: biochemical
T1 construct: purchased Sigma-Aldrich
Method: Determination of AChE inhibition was conducted based on the reported method with slight modifications. Sodium phosphate buffer (0.1 M, pH 8.0, 140 µL), test compound solution (20 µL), enzyme solution (15 µL of AChE at 0.2 units/mL), and DTNB (15 mM, 10 µL) were mixed and incubated for 10 min at room temperature. The reaction was then initiated by adding 10 µL of the substrate (AChI, 15 mM).

[5] = Superoxide radical scavenging activity (NBT/PMS/NADH); settings: for EC50: isolated compounds (Table 5), read-out: SC50 Superoxide
Method: The superoxide scavenging activity assay was performed based on the published method. The superoxide radical was prepared in a 16 mM Tris-HCl buffer (pH 8.0) containing 50 µL of NBT (300 µM), 50 µL of PMS (120 µM), and 50 µL of different concentrations of the tested sample. The reaction was initiated by adding 50 µL of the NADH (468 µM) solution to the mixture and incubated at room temperature for 5 min. The activity of the samples was determined by calculating the decrease in absorbance measured at 560 nm by the following equation:(3) Scavenging rate (%)=(OD0−OD1)/OD0×100 where OD0 is absorbance of the control and OD1 is that of the tested sample.

[6] = molecular target: T2, α-glucosidase (Saccharomyces cerevisiae, UniProt P53341); assay: α-Glucosidase inhibitory activity (p-NPG substrate); type: biochemical
T2 construct: purchased Sigma-Aldrich

[7] = solvent extracts, concentration for 50% free radical scavenging
[8] = isolated compounds (Table 5), Trolox equivalents

T2 sequence (P53341 whole entry): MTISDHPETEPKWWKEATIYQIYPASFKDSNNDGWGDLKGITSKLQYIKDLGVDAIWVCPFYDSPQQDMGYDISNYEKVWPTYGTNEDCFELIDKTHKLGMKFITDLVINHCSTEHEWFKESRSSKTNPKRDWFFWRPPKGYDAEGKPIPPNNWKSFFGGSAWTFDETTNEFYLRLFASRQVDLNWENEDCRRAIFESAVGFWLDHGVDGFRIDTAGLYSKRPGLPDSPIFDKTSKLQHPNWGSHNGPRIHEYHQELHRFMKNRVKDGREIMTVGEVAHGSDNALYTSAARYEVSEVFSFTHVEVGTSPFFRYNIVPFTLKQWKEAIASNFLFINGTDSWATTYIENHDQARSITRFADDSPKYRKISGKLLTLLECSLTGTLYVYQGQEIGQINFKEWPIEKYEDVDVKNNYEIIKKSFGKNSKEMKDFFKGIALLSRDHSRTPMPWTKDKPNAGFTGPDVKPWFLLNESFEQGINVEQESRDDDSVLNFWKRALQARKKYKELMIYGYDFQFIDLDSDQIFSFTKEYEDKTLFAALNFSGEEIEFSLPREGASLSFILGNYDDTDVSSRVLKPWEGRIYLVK
T1 sequence (O42275 24-633): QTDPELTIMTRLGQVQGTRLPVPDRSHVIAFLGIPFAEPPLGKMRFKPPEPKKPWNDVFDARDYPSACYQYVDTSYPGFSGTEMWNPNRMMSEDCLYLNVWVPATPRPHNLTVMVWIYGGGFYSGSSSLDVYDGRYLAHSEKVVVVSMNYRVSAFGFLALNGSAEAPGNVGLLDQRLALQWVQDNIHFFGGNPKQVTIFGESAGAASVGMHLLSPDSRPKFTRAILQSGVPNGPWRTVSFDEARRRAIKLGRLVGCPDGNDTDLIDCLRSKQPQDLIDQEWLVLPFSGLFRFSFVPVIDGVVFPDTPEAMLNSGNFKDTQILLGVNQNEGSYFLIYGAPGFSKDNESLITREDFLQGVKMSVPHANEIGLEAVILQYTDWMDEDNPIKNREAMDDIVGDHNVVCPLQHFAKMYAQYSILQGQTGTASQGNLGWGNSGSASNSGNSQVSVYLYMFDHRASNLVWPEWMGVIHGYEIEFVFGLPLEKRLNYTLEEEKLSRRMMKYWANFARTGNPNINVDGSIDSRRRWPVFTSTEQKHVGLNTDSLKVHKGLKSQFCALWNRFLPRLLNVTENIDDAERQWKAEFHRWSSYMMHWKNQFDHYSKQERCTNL

| Structure (SMILES) | EC50 [1] [µM] | TE FRAP [2, 8] [mM/g] | EC50 [3] [µM] | IC50 [4] [µM] | EC50 [5] [µM] | IC50 [6] [µM] | also measured |
| --- | --- | --- | --- | --- | --- | --- | --- |
| Cc1cc(C(C)(C)C)c(O)c(C(C)(C)C)c1 [BHT, butylated hydroxytoluene, reference compound] | 708 ± 10.8 | 5712.61 ± 176.27 | 37.5 ± 4.31 | – | – | – | SC50 DPPH [1, 7]: 156.04 ± 14.31 µg/mL; TE FRAP ([2]; solvent extracts (Table 2), Trolox equivalents in mM per gram of extract): 3196.39 ± 115.26 mM/g; SC50 ABTS [3, 7]: 9.12 ± 1.85 µg/mL |
| O=C(/C=C/c1ccc(O)c(O)c1)O[C@@H]1C[C@](O)(C(=O)O)C[C@@H](O)[C@H]1O [Chlorogenic acid, chlorogenic acid, reference compound] | – | – | – | – | – | – | IC50 ([4]; isolated compounds (Table 6), read-out: IC50 AChE (converted)): 303 ± 25.2 µM; IC50 ([4]; solvent extracts (Table 3), read-out: IC50 AChE (converted)): 496 µM |
| Cc1cc(O)c2c(c1)C(=O)c1cccc(O)c1C2=O [Chrysophanol (4), chrysophanol] | > 200 | <1 | > 200 | > 400 | > 200 | 604 ± 44.8 | – |
| O=c1cc(-c2ccc(O)c(O)c2)oc2cc(O[C@@H]3O[C@H](CO)[C@@H](O)[C@H](O)[C@H]3O)cc(O)c12 [Cynaroside, reference compound] | – | – | – | – | 20 ± 1.7 | – | SC50 Superoxide [5, 7]: 12.03 ± 4.20 µg/mL |
| Cc1cc(O)c2c(c1)C(=O)c1cc(O)cc(O)c1C2=O [Emodin (3), emodin] | > 200 | <1 | > 200 | 77.6 ± 6.28 | 232 ± 15.9 | 58.9 ± 3.39 | – |
| O=c1c(O)c(-c2ccc(O)cc2)oc2cc(O)cc(O)c12 [Kaempferol (1), kaempferol] | 61.7 ± 7.36 | 1046.16 ± 23.78 | 15.3 ± 0.94 | – | 271 ± 20.7 | – | TE FRAP ([2]; isolated compounds (Table 5), Trolox equivalents, listed as kaempferol (1)): 1046.16 ± 23.78 mM/g |
| COc1cc(O)c2c(c1)C(=O)c1cc(C)cc(O)c1C2=O [Physcion (5), physcion] | > 200 | <1 | > 200 | 76 ± 1.34 | > 200 | > 800 | – |
| O=c1c(O)c(-c2ccc(O)c(O)c2)oc2cc(O)cc(O)c12 [Quercetin (2), quercetin] | 16.1 ± 2.62 | 1026.73 ± 16.69 | 5.7 ± 0.92 | – | 85.8 ± 4.76 | – | TE FRAP ([2]; isolated compounds (Table 5), Trolox equivalents, listed as quercetin (2)): 1026.73 ± 16.69 mM/g |

From paper PMC11761247, “Antioxidant, Anti-α-Glucosidase, Anti-Tyrosinase, and Anti-Acetylcholinesterase Components from Stem of Rhamnus formosana with Molecular Docking Study” (Antioxidants, 2024)
